Assay results as given in patent US9464048B2, “5-oxo-ETE receptor antagonist compounds” (THE ROYAL INSTITUTION FOR THE ADVANCEMENT OF …, priority 2009, dated 2016).

What was measured:
Format in all cases: cell-based
[1] = target: T1, OXE receptor (Homo sapiens, UniProt Q8TDS5); assay: Neutrophil migration (chemotaxis) induced by 5-oxo-ETE, microchemotaxis chambers; design: Human granulocytes 95% neutrophils) are prepared from whole blood; endogenous in cells; host or cells: human blood granulocytes (>=95% neutrophils); conditions: 5-oxo-ETE 100 nM; human granulocytes; Table 2
T1 sequence (Q8TDS5 whole entry): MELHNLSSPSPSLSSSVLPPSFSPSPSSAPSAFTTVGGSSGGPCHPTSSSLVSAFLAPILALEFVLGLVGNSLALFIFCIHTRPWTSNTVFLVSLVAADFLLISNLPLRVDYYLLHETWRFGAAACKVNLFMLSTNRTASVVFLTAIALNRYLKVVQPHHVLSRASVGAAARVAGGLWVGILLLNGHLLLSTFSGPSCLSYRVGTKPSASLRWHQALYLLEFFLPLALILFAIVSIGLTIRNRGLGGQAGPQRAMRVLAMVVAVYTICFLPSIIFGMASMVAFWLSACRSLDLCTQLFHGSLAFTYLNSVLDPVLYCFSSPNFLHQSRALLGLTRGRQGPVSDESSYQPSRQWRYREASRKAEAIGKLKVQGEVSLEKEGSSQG
Description: Cell migration is measured by the modified Boyden technique using 48-well microchemotaxis chambers and Sartorius cellulose nitrate filters (8 μm pore size; 140 μm thickness) as described previously (Powell et al., J Immunol 156: 336 (1996)). Granulocytes (≧95% neutrophils) are prepared as described above. Immediately prior to use the filters are soaked in PBS containing calcium (1 mM), magnesium (1 mM), and 0.3% BSA. Either vehicle (PBS containing Ca^++, Mg^++, and 0.3% BSA) or vehicle containing 5-oxo-ETE (100 nM final concentration) is added to the bottom well in a volume of 30 μl, whereas neutrophils (150,000 cells in 55 μl PBS containing Ca^++, Mg^++ and 0.4% ovalbumin) and either vehicle or various concentrations of a 5-oxo-ETE antagonist are added to each of the top wells. The chambers are incubated for 2 h at 37° C. in 5% CO2 and humidified air. […] The filters are mounted on slides with coverslips using Permount and the numbers of cells on the bottom surfaces of the filters are counted in 5 different fields at a magnification of 400× for each incubation, each of which is performed in triplicate. In cases in which there are large numbers of cells on the bottom surfaces of the filters only quarter or half fields are counted and the results corrected accordingly.

[2] = target: T1, OXE receptor; assay: 5-oxo-ETE-induced calcium mobilization in human granulocytes; design: Human granulocytes 95% neutrophils) are prepared from whole blood; endogenous in cells; host or cells: human blood granulocytes (>=95% neutrophils)
Description: Primary Screening for Antagonist Activity: Calcium Mobilization in Human Granulocytes
Human granulocytes 95% neutrophils) are prepared from whole blood using Dextran 500 to remove red blood cells, followed by centrifugation over Ficoll-Paque to remove mononuclear cells and hypotonic lysis of any remaining red blood cells. After centrifugation the granulocytes are suspended in Ca^++/Mg^++-free phosphate-buffered saline (PBS). Granulocytes (10^7 cells/nil) are incubated with the acetoxymethyl ester of indo-1 ([…]) for 30 min, followed by washing twice with PBS^− and resuspension in the same medium to obtain a final cell concentration of 3.22×10^6 cells/ml. Five minutes prior to commencing data acquisition, Ca^++ and Mg^++ are added to give final concentrations of 1.8 and 1 mM, respectively. Calcium measurements are performed at 37° C. using a spectrofluorometer equipped with a temperature-controlled cuvette holder and a magnetic stirrer. The excitation and emission wavelengths are 331 nm and 410 nm, respectively. Following stabilization of the baseline, fluorescence is measured for 1 min, prior to the addition of either vehicle or various concentrations of a potential 5-oxo-ETE antagonist. Two min later, 5-oxo-ETE (10 nM) is added, followed 1 min later by digitonin (final concentration 0.1%). Data acquisition is terminated after a further 0.5 min. In some cases LTB4 (10 nM) is added 2 min after 5-oxo-ETE, followed 0.5 min later by addition of digitonin. Fmax is determined from fluorescence measurements after the addition of digitonin, whereas Fmin is determined after determination of autofluorescence as described in the literature (Gelfand et al, J. Biol. Chem. 261:11520 (1986)). A dissociation constant of 250 nM for the indo-1/Ca^++ complex is used to calculate [Ca^++]i. […] Measurement of Actin Polymerization in Eosinophils

[3] = system: calcium mobilization in response to LTB4; assay: LTB4-induced calcium mobilization in human neutrophils; conditions: compound 1 μM, LTB4 10 nM, FIG. 2
Description: Human granulocytes 95% neutrophils) are prepared from whole blood using Dextran 500 to remove red blood cells, followed by centrifugation over Ficoll-Paque to remove mononuclear cells and hypotonic lysis of any remaining red blood cells. After centrifugation the granulocytes are suspended in Ca^++/Mg^++-free phosphate-buffered saline (PBS). Granulocytes (10^7 cells/nil) are incubated with the acetoxymethyl ester of indo-1 ([…]) for 30 min, followed by washing twice with PBS^− and resuspension in the same medium to obtain a final cell concentration of 3.22×10^6 cells/ml. Five minutes prior to commencing data acquisition, Ca^++ and Mg^++ are added to give final concentrations of 1.8 and 1 mM, respectively. Calcium measurements are performed at 37° C. using a spectrofluorometer equipped with a temperature-controlled cuvette holder and a magnetic stirrer. The excitation and emission wavelengths are 331 nm and 410 nm, respectively. Following stabilization of the baseline, fluorescence is measured for 1 min, prior to the addition of either vehicle or various concentrations of a potential 5-oxo-ETE antagonist. […] Fmax is determined from fluorescence measurements after the addition of digitonin, whereas Fmin is determined after determination of autofluorescence as described in the literature (Gelfand et al, J. Biol. Chem. 261:11520 (1986)). […]

[4] = target: T1, OXE receptor; assay: 5-oxo-ETE-induced actin polymerization (F-actin levels) in eosinophils; design: endogenous in cells; conditions: 5-oxo-ETE 10 nM, Table 2
Description: F-actin levels in eosinophils are measured using unfractionated leukocytes, prepared as described above. Leukocytes (5×10^7 cells/ml) are treated with PC5-labeled mouse anti-human CD16 (10 μl/10^6 cells; Beckman-Coulter) for 30 min on ice. PBS (2 ml/10^6 cells) is then added and the mixture centrifuged at 200×g for 10 min. The pellet is resuspended in ice cold PBS containing Ca^++ (1.8 mM) and Mg^++ (1 mM) to give a concentration of 5×10^6 cells/ml. Aliquots (90 μl) of the leukocyte suspension are first incubated at 37° C. with either vehicle (10 μl PBS containing Ca^++ and Mg^++ and 0.1% BSA) or vehicle containing a 5-oxo-ETE antagonist. After 5 min, either vehicle or vehicle containing 5-oxo-ETE (final concentration, 10 nM) is added and the incubation continued for a further 20 s. The incubations are then terminated by addition of formaldehyde (37%) to give a final concentration of 8.5%. […] F-actin levels are measured by flow cytometry in eosinophils, which are gated based on high side scatter and low staining with anti-CD16. F-actin levels in the eosinophil population are assessed on the basis of fluorescence due to staining with NBD-phallacidin.

[5] = 5-oxo-ETE 10 nM, human granulocytes, Table 2, read-out: IC50 (μM) Ca^++

For `CCCCCCc1c(C(=O)CC(C)CC(=O)O)c2cc(Cl)ccc2n1C` (racemic) [Compound 60, 5-(5-Chloro-2-hexyl-1-methyl-1H-indol-3-yl)-3-methyl-5-oxo-pentanoic acid], the IC50 [1] was 0.11 µM, the IC50 [2, 5] was 0.025 µM and the “effect on calcium mobilization in response to 5-oxo-ETE” value ([2]; compound 1 μM, 5-oxo-ETE 10 nM, human neutrophils, FIG. 2) was “completely blocked”. For the same compound, the “effect on calcium mobilization in response to LTB4” value [3] was “not to LTB4” and the IC50 [4] was 0.072 µM.
`CCCCCCc1cc2ccccc2n1C(=O)CC(C)CC(=O)O` (stereo not shown) [Compound 2, 5-(2-Hexyl-indol-1-yl)-3-methyl-5-oxo-pentanoic acid] gave an IC50 [1] of 0.82 µM, an IC50 [2, 5] of 0.09 µM and an IC50 ([2]; Table 6, carboxyl side chain variation, readout not given, values match Ca^++, read-out: IC50) of 0.09 µM. For the same compound, the IC50 ([2]; Table 7, alkyl variation, readout not given, values match Ca^++, read-out: IC50) was 0.09 µM and the IC50 [4] was 0.46 µM.
